From patent US8884061B2, “Compositions and methods of use of electron transport system inhibitors” (priority 2006, dated 2014)
Values after ≈ are worked out from the molar mass of the structure shown. Read-outs that look alike come from different tables or passages of the source.

Key:
[1] = biological target: MenA (Mycobacterium tuberculosis, UniProt P9WIP3); assay: In vitro assay against MenA (membrane fractions); assay type: biochemical; conditions: membrane fractions from M. tuberculosis; 5 μM farnesyl diphosphate, 50 μM dihydroxynaphthoic acid, pH 8.5; read-out: IC50 (μmol) MenA
[2] = system: M. tuberculosis H37Rv; assay: MIC, colorimetric microtiter plate method with Alamar blue; assay type: cell-based; conditions: Mycobacterium tuberculosis, read-out: MIC (μg/mL) M. tuberculosis
Experimental: Activity Against M. Tuberculosis
The minimum inhibitory concentration (MIC) of compounds were determined against H37Rv by a colorimetric microtiter plate based method with Alamar blue.

[3] = system: M. tuberculosis H37Rv; assay: MIC, agar (7H11) dilution method; assay type: cell-based; conditions: Mycobacterium tuberculosis, H37RV
[4] = system: M. tuberculosis Kurono; assay: MIC, agar (7H11) dilution method; assay type: cell-based; conditions: Mycobacterium tuberculosis, read-out: Minimum inhibitory concentrations (MIC)
[5] = system: M. bovis BCG Tokyo; assay: microbe, parasite or virus in culture; assay type: cell-based; conditions: Mycobacterium tuberculosis variant bovis BCG, BCG, read-out: Minimum inhibitory concentrations (MIC)
[6] = system: M. avium Flamingo; assay: MIC, agar (7H11) dilution method; assay type: cell-based; conditions: Mycobacterium avium, read-out: Minimum inhibitory concentrations (MIC)
[7] = system: M. intracellularae ATCC 15984; assay: MIC, agar (7H11) dilution method; assay type: cell-based; conditions: read-out: Minimum inhibitory concentrations (MIC)
[8] = system: M. kansasii NIHJ1619; assay: MIC, agar (7H11) dilution method; assay type: cell-based; conditions: Mycobacterium kansasii, read-out: Minimum inhibitory concentrations (MIC)
[9] = system: M. aurum; assay: MIC, agar (7H11) dilution method; assay type: cell-based; conditions: Mycolicibacterium aurum, read-out: Minimum inhibitory concentrations (MIC)
[10] = system: M. fortuitum NIHJ1615; assay: MIC, agar (7H11) dilution method; assay type: cell-based; conditions: Mycolicibacterium fortuitum, read-out: Minimum inhibitory concentrations (MIC)
[11] = system: M. smegmatis Takeo; assay: MIC, agar (7H11) dilution method; assay type: cell-based; conditions: Mycolicibacterium smegmatis, read-out: Minimum inhibitory concentrations (MIC)
[12] = system: S. aureus ATCC 29213; assay: MIC, other bacteria (Table 3); assay type: cell-based; conditions: Staphylococcus aureus, ATCC29213, inoculum size 10^6 CFU/ml, read-out: MIC
[13] = system: S. aureus ATCC 43300 (MRSA); assay: MIC, other bacteria (Table 3); assay type: cell-based; conditions: Staphylococcus aureus, inoculum size 10^6 CFU/ml, read-out: MIC
[14] = system: VRSA 2441-T0041; assay: MIC, other bacteria (Table 3); assay type: cell-based, S. aureus; conditions: Staphylococcus aureus; VRSA 2441-T0041, low level VCM-resistant; inoculum size 10^6 CFU/ml; read-out: MIC
[15] = system: MRSA 2441-05104; assay: MIC, other bacteria (Table 3); assay type: cell-based, S. aureus; conditions: Staphylococcus aureus, inoculum size 10^6 CFU/ml, read-out: MIC
[16] = system: MRSA 2441-05112; assay: MIC, other bacteria (Table 3); assay type: cell-based, S. aureus; conditions: Staphylococcus aureus, inoculum size 10^6 CFU/ml, read-out: MIC
[17] = system: MRSA 2441-05129; assay: MIC, other bacteria (Table 3); assay type: cell-based, S. aureus; conditions: Staphylococcus aureus, inoculum size 10^6 CFU/ml, read-out: MIC
[18] = system: MRSA 2441-05223; assay: MIC, other bacteria (Table 3); assay type: cell-based, S. aureus; conditions: Staphylococcus aureus, inoculum size 10^6 CFU/ml, read-out: MIC
[19] = system: MRSA 2441-05254; assay: MIC, other bacteria (Table 3); assay type: cell-based, S. aureus; conditions: Staphylococcus aureus, inoculum size 10^6 CFU/ml, read-out: MIC
[20] = system: MRSA 2441-05262; assay: MIC, other bacteria (Table 3); assay type: cell-based, S. aureus; conditions: Staphylococcus aureus, inoculum size 10^6 CFU/ml, read-out: MIC
[21] = system: S. epidermidis ATCC 12228; assay: MIC, other bacteria (Table 3); assay type: cell-based; conditions: Staphylococcus epidermidis, ATCC12228, inoculum size 10^6 CFU/ml, read-out: MIC
[22] = system: MRSE 2442-05030; assay: MIC, other bacteria (Table 3); assay type: cell-based, S. epidermidis; conditions: Staphylococcus epidermidis, inoculum size 10^6 CFU/ml, read-out: MIC
[23] = system: MRSE 2442-05047; assay: MIC, other bacteria (Table 3); assay type: cell-based, S. epidermidis; conditions: Staphylococcus epidermidis, inoculum size 10^6 CFU/ml, read-out: MIC
[24] = system: MRSE 2442-05053; assay: MIC, other bacteria (Table 3); assay type: cell-based, S. epidermidis; conditions: Staphylococcus epidermidis, inoculum size 10^6 CFU/ml, read-out: MIC
[25] = system: MRSE 2442-05060; assay: MIC, other bacteria (Table 3); assay type: cell-based, S. epidermidis; conditions: Staphylococcus epidermidis, inoculum size 10^6 CFU/ml, read-out: MIC
[26] = system: MRSE 2442-05110; assay: MIC, other bacteria (Table 3); assay type: cell-based, S. epidermidis; conditions: Staphylococcus epidermidis, inoculum size 10^6 CFU/ml, read-out: MIC
[27] = system: MRSE 2442-05118; assay: MIC, other bacteria (Table 3); assay type: cell-based, S. epidermidis; conditions: Staphylococcus epidermidis, inoculum size 10^6 CFU/ml, read-out: MIC
[28] = system: E. faecalis ATCC 29212; assay: MIC, other bacteria (Table 3); assay type: cell-based; conditions: Enterococcus faecalis, ATCC29212, inoculum size 10^6 CFU/ml, read-out: MIC
[29] = system: E. faecalis ATCC 51299 (VRE); assay: MIC, other bacteria (Table 3); assay type: cell-based; conditions: Enterococcus faecalis, low level VCM-resistant, Van B, inoculum size 10^6 CFU/ml, read-out: MIC
[30] = system: E. faecalis NCTC 12201 (VRE); assay: MIC, other bacteria (Table 3); assay type: cell-based; conditions: Enterococcus faecalis, high level VCM-resistant, Van A, inoculum size 10^6 CFU/ml, read-out: MIC
[31] = system: E. faecium ATCC 49224; assay: MIC, other bacteria (Table 3); assay type: cell-based; conditions: Enterococcus faecium, ATCC49224; E. faecium ATCC 49224, GM-resistant; inoculum size 10^6 CFU/ml; read-out: MIC
[32] = system: E. faecium NCTC 12203 (VRE); assay: MIC, other bacteria (Table 3); assay type: cell-based; conditions: Enterococcus faecium, high level VCM-resistant, Van A, inoculum size 10^6 CFU/ml, read-out: MIC
[33] = system: E. coli ATCC 25922; assay: MIC, other bacteria (Table 3); assay type: cell-based; conditions: Escherichia coli, ATCC25922, inoculum size 10^6 CFU/ml, read-out: MIC
[34] = system: K. pneumoniae ATCC 27736; assay: MIC, other bacteria (Table 3); assay type: cell-based; conditions: Klebsiella pneumoniae, ATCC27736, inoculum size 10^6 CFU/ml, read-out: MIC
[35] = system: P. mirabilis ATCC 4630; assay: MIC, other bacteria (Table 3); assay type: cell-based; conditions: Proteus mirabilis, ATCC4630, inoculum size 10^6 CFU/ml, read-out: MIC
[36] = system: S. marsascens ATCC 14756; assay: MIC, other bacteria (Table 3); assay type: cell-based; conditions: inoculum size 10^6 CFU/ml, read-out: MIC
[37] = system: P. aeruginosa ATCC 27853; assay: MIC, other bacteria (Table 3); assay type: cell-based; conditions: Pseudomonas aeruginosa, ATCC27853, inoculum size 10^6 CFU/ml, read-out: MIC
[38] = M. tuberculosis H37Rv, table line r8 (2nd of 5 so labelled), read-out: Minimum inhibitory concentrations (MIC)
[39] = M. tuberculosis H37Rv, table line r9 (3rd of 5 so labelled), read-out: Minimum inhibitory concentrations (MIC)
[40] = M. tuberculosis H37Rv, table line r10 (4th of 5 so labelled), read-out: Minimum inhibitory concentrations (MIC)
[41] = M. tuberculosis H37Rv, table line r11 (5th of 5 so labelled), read-out: Minimum inhibitory concentrations (MIC)
[42] = M. tuberculosis Kurono, agar (7H11) dilution

Sequence of MenA (P9WIP3 whole entry): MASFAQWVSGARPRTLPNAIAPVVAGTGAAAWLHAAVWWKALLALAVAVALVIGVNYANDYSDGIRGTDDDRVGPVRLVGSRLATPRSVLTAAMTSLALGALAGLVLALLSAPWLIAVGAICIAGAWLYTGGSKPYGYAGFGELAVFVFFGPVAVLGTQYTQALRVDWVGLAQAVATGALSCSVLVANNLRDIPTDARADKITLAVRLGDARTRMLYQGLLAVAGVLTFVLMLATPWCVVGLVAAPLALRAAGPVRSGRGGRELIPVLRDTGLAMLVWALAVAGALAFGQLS

C=CCN(C)CCCCCCCCOc1ccc(C(=O)c2ccc(Cl)cc2)c(Cl)c1 [Cpd 9]
IC50 [1]: 4 µM
MIC [2]: 0.6 µg/mL (≈ 1.34 µM)

C=CCN(C)CCCCCCCCOc1ccc(C(O)c2ccc(Cl)cc2)c(Cl)c1 (stereo not shown) [Cpd 10, (4-(8-(allyl(methyl)amino)octyloxy)-2-chlorophenyl)(4-chlorophenyl)methanol]
IC50 [1]: < 2.5 µM
MIC [2]: 0.6 µg/mL (≈ 1.33 µM)

C#CCN(C)CCCCCCCCOc1ccc(C(=O)c2ccc(Cl)cc2)c(Cl)c1 [Cpd 11, (2-Chloro-4-(8-(methyl(prop-2-ynyl)amino)octyloxy)phenyl)(4-chlorophenyl)methanone]
IC50 [1]: 15 µM
MIC [2]: 12 µg/mL (≈ 26.9 µM)

CN(CCCCCCCCOc1ccc(C(=O)c2ccc(Cl)cc2)c(Cl)c1)Cc1ccccc1 [Cpd 12]
IC50 [1]: 13 µM
MIC [2]: 12 µg/mL (≈ 24.1 µM)

C=CCN(C)CCCCCCCCOc1ccc(C(=O)c2ccc(Cl)cc2)c(O)c1 [Cpd 13, (4-(8-(allyl(methyl)amino)octyloxy)-2-hydroxyphenyl)(4-chlorophenyl)methanone]
IC50 [1]: < 2.5 µM
MIC [2]: 0.2 µg/mL (≈ 0.465 µM)

C=CCN(C)CCCCCCCCOc1ccc(C(=O)c2ccc(Cl)cc2)c(O)c1 [Cpd #22, (4-(8-(allyl(methyl)amino)octyloxy)-2-hydroxyphenyl)(4-chlorophenyl)methanone]
MIC ([3]; read-out: Minimum inhibitory concentrations (MIC), M. tuberculosis H37Rv, table line r7 (1st of 5 so labelled)): 1.56 µg/mL (≈ 3.63 µM)
MIC ([3]; read-out: Minimum inhibitory concentrations (MIC), M. tuberculosis H37Rv, table line r8 (2nd of 5 so labelled)): 1.56 µg/mL (≈ 3.63 µM)
MIC ([3]; read-out: Minimum inhibitory concentrations (MIC), M. tuberculosis H37Rv, table line r9 (3rd of 5 so labelled)): 1.56 µg/mL (≈ 3.63 µM)
MIC ([3]; read-out: Minimum inhibitory concentrations (MIC), M. tuberculosis H37Rv, table line r10 (4th of 5 so labelled)): 1.56 µg/mL (≈ 3.63 µM)
MIC ([3]; read-out: Minimum inhibitory concentrations (MIC), M. tuberculosis H37Rv, table line r11 (5th of 5 so labelled)): 3.13 µg/mL (≈ 7.28 µM)
MIC [4]: 1.56 µg/mL (≈ 3.63 µM)
MIC [5]: 3.13 µg/mL (≈ 7.28 µM)
MIC [6]: 6.25 µg/mL (≈ 14.5 µM)
MIC [7]: 6.25 µg/mL (≈ 14.5 µM)
MIC [8]: 6.25 µg/mL (≈ 14.5 µM)
MIC [9]: 6.25 µg/mL (≈ 14.5 µM)
MIC [10]: 12.5 µg/mL (≈ 29.1 µM)
MIC [11]: 12.5 µg/mL (≈ 29.1 µM)
MIC [12]: 25 µg/mL (≈ 58.1 µM)
MIC [13]: 25 µg/mL (≈ 58.1 µM)
MIC [14]: 25 µg/mL (≈ 58.1 µM)
MIC [15]: 25 µg/mL (≈ 58.1 µM)
MIC [16]: 25 µg/mL (≈ 58.1 µM)
MIC [17]: 50 µg/mL (≈ 116 µM)
MIC [18]: 25 µg/mL (≈ 58.1 µM)
MIC [19]: 50 µg/mL (≈ 116 µM)
MIC [20]: 25 µg/mL (≈ 58.1 µM)
MIC [21]: 12.5 µg/mL (≈ 29.1 µM)
MIC [22]: 12.5 µg/mL (≈ 29.1 µM)
MIC [23]: 12.5 µg/mL (≈ 29.1 µM)
MIC [24]: 12.5 µg/mL (≈ 29.1 µM)
MIC [25]: 12.5 µg/mL (≈ 29.1 µM)
MIC [26]: 12.5 µg/mL (≈ 29.1 µM)
MIC [27]: 12.5 µg/mL (≈ 29.1 µM)
MIC [28]: 12.5 µg/mL (≈ 29.1 µM)
MIC [29]: 12.5 µg/mL (≈ 29.1 µM)
MIC [30]: 12.5 µg/mL (≈ 29.1 µM)
MIC [31]: 12.5 µg/mL (≈ 29.1 µM)
MIC [32]: 6.25 µg/mL (≈ 14.5 µM)
MIC [33]: 50 µg/mL (≈ 116 µM)
MIC [34]: > 100 µg/mL
MIC [35]: > 100 µg/mL
MIC [36]: > 100 µg/mL
MIC [37]: > 100 µg/mL

NNC(=O)c1ccncc1 [INH, isoniazid, reference compound]
MIC [3, 38]: 0.1 µg/mL (≈ 0.729 µM)
MIC [3, 39]: > 25 µg/mL
MIC [3, 40]: 0.05 µg/mL (≈ 0.365 µM)
MIC [3, 41]: 0.1 µg/mL (≈ 0.729 µM)
MIC [4, 42]: 0.05 µg/mL (≈ 0.365 µM)
MIC [5]: 0.1 µg/mL (≈ 0.729 µM)
MIC [6]: > 25 µg/mL
MIC [7]: 12.5 µg/mL (≈ 91.1 µM)
MIC [8]: 12.5 µg/mL (≈ 91.1 µM)
MIC [9]: 6.25 µg/mL (≈ 45.6 µM)
MIC [10]: 6.25 µg/mL (≈ 45.6 µM)
MIC [11]: 12.5 µg/mL (≈ 91.1 µM)

CO[C@H]1/C=C/O[C@@]2(C)Oc3c(C)c(O)c4c(O)c(c(/C=N/N5CCN(C)CC5)c(O)c4c3C2=O)NC(=O)/C(C)=C\C=C\[C@H](C)[C@H](O)[C@@H](C)[C@@H](O)[C@@H](C)[C@H](OC(C)=O)[C@@H]1C [RFP, Rifampicin, reference compound]
MIC [3, 38]: 0.1 µg/mL (≈ 0.122 µM)
MIC [3, 39]: 0.2 µg/mL (≈ 0.243 µM)
MIC [3, 40]: > 25 µg/mL
MIC [3, 41]: 0.2 µg/mL (≈ 0.243 µM)
MIC [4, 42]: 0.1 µg/mL (≈ 0.122 µM)
MIC [5]: 0.1 µg/mL (≈ 0.122 µM)
MIC [6]: 3.13 µg/mL (≈ 3.8 µM)
MIC [7]: 3.13 µg/mL (≈ 3.8 µM)
MIC [8]: 3.13 µg/mL (≈ 3.8 µM)
MIC [9]: 0.78 µg/mL (≈ 0.948 µM)
MIC [10]: > 25 µg/mL
MIC [11]: > 25 µg/mL
